One assay deals with PI3Kα (Homo sapiens (Human), UniProt P42336). The assay can be described thus: PI3Kα enzymatic assay. The assay is classed as biochemical. The note with it: read-out: In vitro enzymatic activity (IC50) PI3Kα. As to the method:
Assay 1-2: In Vitro Enzymatic Inhibitory Activity of the Present Compound
• 1.1 1-fold kinase buffer: 50 mM HEPES, pH 7.5, 10 mM MgCl2, 1 mM EGTA, 3 mM MnCl2, 0.01% Tween-20, 2 mM DTT; • 1.2 4-fold kinase solution: mTOR kinase was added to 1-fold kinase buffer to form 4-fold kinase solution with a final concentration of 2.5 nM; • 1.3 2-fold substrate and ATP solution: the substrate 4EBP1 and ATP were added to 1-fold kinase buffer to form 2-fold substrate solution with final concentration of 50 nM of 4EBP1 and 10.8 μM of ATP; • 1.4 4-fold test substance solutions: 100-fold test substance solutions in different gradient concentrations were formulated with 100% DMSO, and diluted by 25 folds with 1-fold kinase buffer to form 4-fold test substance solutions in different gradient concentrations. • 1.5 Preparation of detection solution: a detection solution containing 2-fold final concentrations of EDTA and 4EBP1 phosphorylated antibody was formulated, wherein the final concentration for EDTA was 8 mM, and the final concentration for the 4EBP phosphorylated antibody was 2 nM. 2. Procedure • 2.1 To each well of a 384-well plate was added 2.5 μL of the 4-fold test substance solutions in gradient concentrations. The replication was made. • 2.2 To each well was added 2.5 μL of 4-fold kinase solution, and then the plate was incubated for 10 mins; • 2.3 Then to each well was added 5 μL/of 2-fold substrate and ATP solution, and then the plate was incubated at room temperature for 1 hour; • 2.4 Finally, 10 μL of the detection solution was added to terminate the reaction. After 60 mins, the data Lance signal ([…]) was read from Envision. 3 Data treatment Inhibition rate (%)=[…] • wherein: • maximum refers to the reading at the DMSO control well. • minimum refers to the reading at the control well without kinase, • The data was input into Graphpad Prism 5.0 to plot and obtain the curve and IC50 value. PI3Kα Enzymatic Assay 1. […] After 15 mins, the data Lance signal ([…]) was read from Envision. 3 Data treatment Inhibition rate (%)=100−(sample value−minimum)/(maximum−minimum)×100 • wherein: • maximum refers to the reading at the control well without kinase, • minimum refers to the reading at the DMSO control well, • The data was input into Graphpad Prism 5.0 to plot and obtain the curve and IC50 value. […]

For the next assay, the target named is Muscarinic M1 (Homo sapiens (Human), UniProt P11229). The assay can be described thus: Radioligand binding assay No. 252610. Particulars: test substance 10 μM, read-out: Inhibitory rate (%), Muscarinic M1.
Chain of Muscarinic M1 (P11229 whole entry): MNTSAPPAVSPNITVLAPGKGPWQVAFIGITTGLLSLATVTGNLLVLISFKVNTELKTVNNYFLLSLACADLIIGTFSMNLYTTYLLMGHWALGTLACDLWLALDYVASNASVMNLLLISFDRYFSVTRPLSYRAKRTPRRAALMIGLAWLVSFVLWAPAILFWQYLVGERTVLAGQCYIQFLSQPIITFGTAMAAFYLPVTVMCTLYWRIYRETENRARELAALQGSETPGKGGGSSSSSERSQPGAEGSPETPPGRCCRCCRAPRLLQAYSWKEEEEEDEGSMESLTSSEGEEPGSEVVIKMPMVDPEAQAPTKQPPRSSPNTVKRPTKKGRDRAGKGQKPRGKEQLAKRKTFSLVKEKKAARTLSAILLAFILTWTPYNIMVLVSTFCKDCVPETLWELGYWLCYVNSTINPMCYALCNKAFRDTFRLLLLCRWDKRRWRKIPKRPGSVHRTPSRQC

Chain of PI3Kα (P42336 whole entry): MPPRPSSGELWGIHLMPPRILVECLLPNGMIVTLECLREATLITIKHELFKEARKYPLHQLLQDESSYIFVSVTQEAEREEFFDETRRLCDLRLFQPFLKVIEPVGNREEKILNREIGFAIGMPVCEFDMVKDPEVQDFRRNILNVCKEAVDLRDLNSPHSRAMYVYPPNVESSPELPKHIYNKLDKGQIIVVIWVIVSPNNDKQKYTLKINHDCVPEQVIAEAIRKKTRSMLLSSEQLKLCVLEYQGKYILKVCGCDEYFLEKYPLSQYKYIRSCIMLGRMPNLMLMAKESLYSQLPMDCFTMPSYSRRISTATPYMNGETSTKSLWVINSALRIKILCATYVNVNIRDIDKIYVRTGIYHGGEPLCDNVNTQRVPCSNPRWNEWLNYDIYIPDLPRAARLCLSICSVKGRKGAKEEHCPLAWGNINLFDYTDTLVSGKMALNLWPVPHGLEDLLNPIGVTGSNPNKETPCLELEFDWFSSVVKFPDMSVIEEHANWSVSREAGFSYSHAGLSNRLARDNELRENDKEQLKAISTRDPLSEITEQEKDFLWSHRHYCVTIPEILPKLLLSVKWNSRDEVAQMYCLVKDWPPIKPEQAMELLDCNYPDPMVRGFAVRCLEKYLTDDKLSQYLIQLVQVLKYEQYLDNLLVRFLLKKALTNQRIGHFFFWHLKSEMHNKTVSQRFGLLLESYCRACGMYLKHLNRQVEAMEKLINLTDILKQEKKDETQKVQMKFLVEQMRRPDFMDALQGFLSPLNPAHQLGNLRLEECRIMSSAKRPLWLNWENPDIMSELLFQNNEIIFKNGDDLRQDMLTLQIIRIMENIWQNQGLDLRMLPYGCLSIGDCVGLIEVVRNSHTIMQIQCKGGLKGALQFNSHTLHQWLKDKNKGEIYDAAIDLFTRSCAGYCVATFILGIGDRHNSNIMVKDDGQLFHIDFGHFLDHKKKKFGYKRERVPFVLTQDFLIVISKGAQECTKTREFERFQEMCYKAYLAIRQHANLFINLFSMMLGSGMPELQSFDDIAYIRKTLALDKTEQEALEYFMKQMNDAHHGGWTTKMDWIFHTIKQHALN
Chain of PI3Kα (P27986 whole entry partner): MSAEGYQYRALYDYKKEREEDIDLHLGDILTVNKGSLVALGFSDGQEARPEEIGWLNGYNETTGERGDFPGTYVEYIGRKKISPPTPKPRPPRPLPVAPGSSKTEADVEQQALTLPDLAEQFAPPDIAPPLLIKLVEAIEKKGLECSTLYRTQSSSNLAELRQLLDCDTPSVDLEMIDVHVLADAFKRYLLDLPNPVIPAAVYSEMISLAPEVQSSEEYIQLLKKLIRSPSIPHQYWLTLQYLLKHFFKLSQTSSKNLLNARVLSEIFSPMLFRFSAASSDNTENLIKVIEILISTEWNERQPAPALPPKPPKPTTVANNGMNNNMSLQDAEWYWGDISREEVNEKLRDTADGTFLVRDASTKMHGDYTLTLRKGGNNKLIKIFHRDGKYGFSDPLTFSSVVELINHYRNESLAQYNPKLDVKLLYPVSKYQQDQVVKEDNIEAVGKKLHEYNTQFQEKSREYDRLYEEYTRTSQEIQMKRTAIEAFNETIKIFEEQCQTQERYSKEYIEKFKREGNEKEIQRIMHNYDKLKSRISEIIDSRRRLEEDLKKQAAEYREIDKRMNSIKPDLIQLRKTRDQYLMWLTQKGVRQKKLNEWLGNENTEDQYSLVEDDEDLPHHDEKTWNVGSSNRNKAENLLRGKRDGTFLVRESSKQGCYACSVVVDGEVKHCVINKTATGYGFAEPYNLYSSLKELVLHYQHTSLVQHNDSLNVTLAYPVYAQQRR

Consider `O=c1[nH]c(=O)n(-c2cccc(C(F)(F)F)c2)c2c1cnc1ccc(-c3cnc4[nH]ccc4c3)nc12` [Compound 30, 9-(1H-pyrrolo[2,3-b]pyridin-5-yl)-1-(3-(trifluoromethyl)phenyl)pyrimido[5,4-c][1,5]naphthyridine-2,4(1H,3H)-dione], for which, at PI3Kα, the IC50 came to 0.015 µM.
`Nc1ccc(-c2ccc3ncc4c(=O)[nH]c(=O)n(-c5cccc(C(F)(F)F)c5)c4c3n2)cn1` [Compound 5, 9-(6-aminopyridin-3-yl)-1-(3-(trifluoromethyl)phenyl)pyrimido[5,4-c][1,5]naphthyridine-2,4(1H,3H)-dione]: the inhibition at 10 µM on Muscarinic M1 was determined as 18%.

These data come from patent US9365572B2, “PI3K and/or mTOR inhibitor” (XUANZHU PHARMA CO., LTD., priority 2012, dated 2016).
